Patent US20240315989A1 (priority 2021, published 2024)
pKi: −log10 of the molar value.

Columns and labels:
σ1 site [1] = target: T1, σ1 site (Homo sapiens, UniProt Q99720); conditions: cited from earlier work
σ1 site [2] = target: T1, σ1 site; conditions: read-out: Affinity for σ1 Site (Ki or KD values); cited from earlier work
SARS-CoV-2 infection = assay: Retrospective cohort (BJC Healthcare): antidepressant exposure and ED or hospital encounter within 30 days; format: in vivo, human; conditions: for Unadjusted Odds Ratio, ED or hospital encounter within 30 days / Adjusted Odds Ratio, ED or hospital encounter within 30 days: vs No Antidepressant (Ref); for Unadjusted Odds Ratio, ED or hospital encounter within 30 days: logistic regression; for Adjusted Odds Ratio, ED or hospital encounter within 30 days: multivariable logistic regression, complete cases
[3] = share of exposed outpatients with an encounter after a positive SARS-CoV-2 test

T1 sequence (Q99720 whole entry): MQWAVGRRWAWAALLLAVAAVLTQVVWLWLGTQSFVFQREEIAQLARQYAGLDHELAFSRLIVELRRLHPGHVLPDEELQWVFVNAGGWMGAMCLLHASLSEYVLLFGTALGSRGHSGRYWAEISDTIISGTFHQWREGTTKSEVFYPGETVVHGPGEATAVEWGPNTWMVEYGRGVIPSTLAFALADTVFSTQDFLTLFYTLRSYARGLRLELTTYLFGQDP

Compound	Function on σ1 Site (σ1 site [1])	pKi (σ1 site [2])	further results
COC(=O)C1(c2ccc(C)cc2)CC1CN1CCC(O)(c2ccccc2)CC1 (single isomer, unassigned; (+)) [(+)-MR 200]	Antagonist	> 7.30	
CC(C)=CCN1CCC2(C)c3cc(O)ccc3CC1C2C (single isomer, unassigned; (+)) [(+)-Pentazocine]	Agonist		
CC(C)=CCN1CCC2(C)c3cc(O)ccc3CC1C2C (single isomer, unassigned; (-)) [(−)-Pentazocine]	Agonist		
O=C(NC1CCN(Cc2ccccc2)CC1)c1ccc(I)cc1 [4-IBP]	Agonist	> 7.30	
CCCN1CCC[C@H](c2cccc(O)c2)C1 [(+)-3-PPP]	Agonist		
NC12CC3CC(CC(C3)C1)C2 [Amantadine]	Agonist^?		
CN(C)CCN(C)CCc1ccc(Cl)c(Cl)c1 [BD 1047]	Antagonist		
CN1CCN(CCc2ccc(Cl)c(Cl)c2)CC1 [BD 1063]	Antagonist	> 7.30	
OC(CCCN1CCN(c2ncc(F)cn2)CC1)c1ccc(F)cc1 (stereo not shown) [BMY 14802]	Antagonist		
CCN(CC)CCOCCOC(=O)C1(c2ccccc2)CCCC1 [Carbetapentane]	Agonist	> 7.30	
C#CCN(C)CCCOc1ccc(Cl)cc1Cl [Clorgyline]	Agonist^?	> 7.30	
COC(=O)[C@H]1[C@@H](OC(=O)c2ccccc2)C[C@@H]2CC[C@H]1N2C [Cocaine]		> 5.00	
C[C@]12CC[C@H](OS(=O)(=O)O)CC1=CC[C@@H]1[C@@H]2CC[C@]2(C)C(=O)CC[C@@H]12 [DHEAS]	Agonist	> 5.00	
CN(C)CC(c1ccc(O)cc1)C1(O)CCCCC1 (stereo not shown) [Desvenlafaxine]			ED or hospital encounter within 30 days, % (SARS-CoV-2 infection; [3]): 18.7%; Unadjusted Odds Ratio, ED or hospital encounter within 30 days (SARS-CoV-2 infection): 2.15; Adjusted Odds Ratio, ED or hospital encounter within 30 days (SARS-CoV-2 infection): 0.95
Cc1ccc2c(c1)[C@]13CCCC[C@@H]1[C@H](C2)N(C)CC3 [Dimemorfan]	Agonist	> 6.30	
COc1cc2c(cc1OC)C(=O)C(CC1CCN(Cc3ccccc3)CC1)C2 (stereo not shown) [Donepezil]	Agonist	> 7.30	
CN(C)CCC=C1c2ccccc2COc2ccccc21 [Doxepin]			ED or hospital encounter within 30 days, % (SARS-CoV-2 infection; [3]): 27.5%; Unadjusted Odds Ratio, ED or hospital encounter within 30 days (SARS-CoV-2 infection): 3.55; Adjusted Odds Ratio, ED or hospital encounter within 30 days (SARS-CoV-2 infection): 1.10
CNCC[C@H](Oc1cccc2ccccc12)c1cccs1 [Duloxetine]			ED or hospital encounter within 30 days, % (SARS-CoV-2 infection; [3]): 21.8%; Unadjusted Odds Ratio, ED or hospital encounter within 30 days (SARS-CoV-2 infection): 2.61; Adjusted Odds Ratio, ED or hospital encounter within 30 days (SARS-CoV-2 infection): 0.95
O=C(CC1CCN(CC2CC2)CC1)c1ccc(F)cc1 [Dup 734]		> 7.30	
Fc1ccc(C2=CCN(CCCCn3cncn3)CC2)cc1.O=C(O)CC(O)(CC(=O)O)C(=O)O [E-5842]	Antagonist	> 7.30	
OC(CN1CCC(Cc2ccc(F)cc2)CC1)c1ccc(Cl)cc1 (stereo not shown) [Eliprodil (SL-82.0715), Eliprodil]		> 6.30	
OC(CCCN1CCC(O)(c2ccc(Cl)cc2)CC1)c1ccc(F)cc1 (stereo not shown) [Haloperidol Metabolite II]	Irreversible		
OC1(c2ccc(Cl)cc2)CCNCC1 [Haloperidol Metabolite I]	Antagonist	> 6.30	
CCC(C/C=C/c1ccccc1)(c1ccccc1)N(C)CC1CC1 (stereo not shown) [JO-1784 (Igmesine), Igmesine]	Agonist	> 7.30	
CCN(CC)C(=O)[C@@]1(c2ccccc2)C[C@H]1CN [Levomilnacipran]			ED or hospital encounter within 30 days, % (SARS-CoV-2 infection; [3]): 20.0%
CNC(C)Cc1ccc2c(c1)OCO2 (stereo not shown) [MDMA]		> 5.00	

Compound	Function on σ1 Site (σ1 site [1])	pKi (σ1 site [2])	further results
COCCN1CCN(C[C@H]2CCN(c3ccc(Cl)cc3)C2=O)CC1.O=C(O)C(O)C(O)C(=O)O [MS-377]	Antagonist	> 7.30	
CC12CC3CC(C)(C1)CC(N)(C3)C2 [Memantine]	Agonist^?	> 5.00	
CN[C@@H](C)Cc1ccccc1 [Metamphetamine]		> 5.00	
S=C=Nc1cccc(C2(N3CCCCC3)CCCCC2)c1 [Metaphit]	Irreversible	> 6.30	
CN1CCN2c3ncccc3Cc3ccccc3C2C1 (stereo not shown) [Mirtazapine]			ED or hospital encounter within 30 days, % (SARS-CoV-2 infection; [3]): 27.9%
CCCN(CCC)CCc1ccc(OC)c(OCCc2ccccc2)c1 [NE-100]	Antagonist		
CCc1nn(CCCN2CCN(c3cccc(Cl)c3)CC2)c(=O)n1CCOc1ccccc1 [Nefazodone]			ED or hospital encounter within 30 days, % (SARS-CoV-2 infection; [3]): 0.0%
CNc1cc(OC)c(C(=O)NC2CCN(Cc3ccccc3)C2C)cc1Cl (stereo not shown) [Nemonapride]		> 7.30	
CNCCC=C1c2ccccc2CCc2ccccc21 [Nortriptyline]			ED or hospital encounter within 30 days, % (SARS-CoV-2 infection; [3]): 24.3%; Unadjusted Odds Ratio, ED or hospital encounter within 30 days (SARS-CoV-2 infection): 3.02; Adjusted Odds Ratio, ED or hospital encounter within 30 days (SARS-CoV-2 infection): 1.08
COc1cccc2c1CCC(=O)N2CCCN1CCN(c2cccc(Cl)c2)CC1 [OPC-14523]	Agonist	> 7.30	
O=C(OCCN1CCOCC1)C1(c2ccccc2)CCCCC1 [PRE 084]	Agonist		
COc1ccc(N2C[C@H](CN3CCC(O)(c4ccc5c(c4)OCO5)CC3)OC2=O)cc1 [Panamesine (EMD 57445), Panamesine]	Antagonist	> 7.30	
O=C1NC(=O)C(c2ccccc2)(c2ccccc2)N1 [Phenytoin (DPH), Phenytoin]	Allosteric		
CC(=O)[C@H]1CC[C@H]2[C@@H]3CCC4=CC(=O)CC[C@]4(C)[C@H]3CC[C@]12C [Progesterone]	Antagonist		
C[C@@H]1CN(CCCn2c3ccccc3c3ccccc32)C[C@H](C)N1 [Rimcazole (BW-234U), Rimcazole]	Antagonist		
Cc1cccc(/C=N/N2CCN(C(c3ccccc3)c3ccccc3)CC2)n1 [Ropizine]	Allosteric		
O=c1n(CCCN2CCN(c3cccc(Cl)c3)CC2)nc2ccccn12 [Trazodone]			ED or hospital encounter within 30 days, % (SARS-CoV-2 infection; [3]): 22.6%; Unadjusted Odds Ratio, ED or hospital encounter within 30 days (SARS-CoV-2 infection): 2.74; Adjusted Odds Ratio, ED or hospital encounter within 30 days (SARS-CoV-2 infection): 0.99
N#Cc1ccc2[nH]cc(CCCCN3CCN(c4ccc5oc(C(N)=O)cc5c4)CC3)c2c1 [Vilazodone]			ED or hospital encounter within 30 days, % (SARS-CoV-2 infection; [3]): 29.4%; Unadjusted Odds Ratio, ED or hospital encounter within 30 days (SARS-CoV-2 infection): 3.91; Adjusted Odds Ratio, ED or hospital encounter within 30 days (SARS-CoV-2 infection): 1.36
Cc1ccc(Sc2ccccc2N2CCNCC2)c(C)c1 [Vortioxetine]			ED or hospital encounter within 30 days, % (SARS-CoV-2 infection; [3]): 14.3%; Unadjusted Odds Ratio, ED or hospital encounter within 30 days (SARS-CoV-2 infection): 1.56; Adjusted Odds Ratio, ED or hospital encounter within 30 days (SARS-CoV-2 infection): 0.58
CC(NC(C)(C)C)C(=O)c1cccc(Cl)c1 (stereo not shown) [bupropion]			ED or hospital encounters within 30 days, % (SARS-CoV-2 infection; <20 mg fluoxetine-equivalent daily): 13.9%; ED or hospital encounter within 30 days, % (SARS-CoV-2 infection; [3]): 14.3%; ED or hospital encounters within 30 days, % (SARS-CoV-2 infection; ≥20 mg fluoxetine-equivalent daily): 15.0%; ED or hospital encounters within 30 days, % (SARS-CoV-2 infection; ≥40 mg fluoxetine-equivalent daily): 20.0%
CN(C)CCCC1(c2ccc(F)cc2)OCc2cc(C#N)ccc21 (stereo not shown) [citalopram]			ED or hospital encounter within 30 days, % (SARS-CoV-2 infection; [3]): 15.8%
CN(C)CCCN1c2ccccc2CCc2ccc(Cl)cc21 [clomipramine]			ED or hospital encounter within 30 days, % (SARS-CoV-2 infection; in vivo): 18.2%
CNCCCN1c2ccccc2CCc2ccccc21 [desipramine]			ED or hospital encounter within 30 days, % (SARS-CoV-2 infection; [3]): 10.0%; Unadjusted Odds Ratio, ED or hospital encounter within 30 days (SARS-CoV-2 infection): 1.04; Adjusted Odds Ratio, ED or hospital encounter within 30 days (SARS-CoV-2 infection): 0.24
CN(C)CCCN1c2ccccc2CCc2ccccc21 [imipramine]	Agonist	> 6.30	ED or hospital encounter within 30 days, % (SARS-CoV-2 infection; [3]): 23.5%
COc1ccc(C(CN(C)C)C2(O)CCCCC2)cc1 (stereo not shown) [venlafaxine]			ED or hospital encounter within 30 days, % (SARS-CoV-2 infection; [3]): 17.1%; Unadjusted Odds Ratio, ED or hospital encounter within 30 days (SARS-CoV-2 infection): 1.94; Adjusted Odds Ratio, ED or hospital encounter within 30 days (SARS-CoV-2 infection): 0.78
Pregnenolone sulfate	Agonist		
